Read-outs that look alike come from different tables or passages of the source.
Key:
[1] = system: azPC-mediated inhibition of MBP Ac1-11 specific T cell proliferation; assay: Phospholipase inhibitor effect on azPC-mediated inhibition of T cell proliferation; format: cell-based, mouse; details: about 40 min pre-incubation with inhibitor, 2 μg/ml MBPAc1-11, 30 μg/ml azPC, 48 hours
Description: 5×10^6 cells/ml were pre-incubated in complete RPMI media for about 40 min at 37° C. with 5% CO2, in the presence of the corresponding vehicle (DMSO or 100% ethanol) or a phospholipase inhibitor: OBAA (500 nM, Tocris Bioscience), U 73122 (500 nM, Tocris Bioscience), 525143 (5 μM, EMD, Calbiochem), FKGK 11 (50 μM, Caymen Chemical), YM 26734 (250 μM, Tocris Bioscience), LY 311727 (500 μM, Tocris Bioscience), CAY10590 (200 μM, Caymen Chemical), 525145 (5 μM, EMD, Calbiochem). Afterwards, the splenocytes were plated in triplicate and stimulated in vitro with 2 μg/ml of MBPAc1-11 in the presence of 30 μg/ml azPC for 48 hours. Proliferation response is the ratio of the average triplicate wells of MBP+azPC divided by the average triplicate wells of MBP, or MBP divided by MBP.

[2] = system: MBPAc1-11-TCR transgenic splenocytes; assay: MBPAc1-11-specific T-cell proliferation (3H-thymidine incorporation); format: cell-based, mouse; details: fatty-acid side-chain analogs, various concentrations
Description: (§1) Splenocytes were harvested from mice transgenic for the MBPAc1-11-specific T-cell receptor and stimulated with 2 μg/ml of MBPAc1-11 in the presence of 30 μg/ml of lipid. Lymph nodes and spleens were also harvested from naive C57BL/6 mice, and CD3^+ T-cell enrichment columns (R&D systems) were used to isolate CD3^+ T cells. The purified CD3^+ T cells were stimulated with 5 μg/ml of plate-bound anti-CD3 antibodies and anti-CD28 antibodies in the presence of 30 μg/ml of POPS, PGPC, azPC ester, brain sulfatides, or azPC, 0.25 mM palmitic acid, or 100% ethanol (as the vehicle control). For assessment of proliferation, 1 μCi of ^3H-thymidine was added to each well for the final 18-24 hours of culture, and incorporation of radioactivity was measured by using a Betaplate scintillation counter. Cytokine assays were performed on culture supernatants after 24 (IL-12p40) or 48 hours (IFN-γ, IL-6, and TNF) of culture by using the BD OptEIA™ Mouse ELISA kits (BD Biosciences).
5×10^6 cells/ml were stimulated in vitro with 2 μg/ml of MBPAc1-11 in the presence of various concentrations of palmitic acid (Sigma), other lipids, or 100% Ethanol (vehicle alone).
For assessment of proliferation, 1 μCi of ^3H-thymidine was added to each well for the final 18 hours of culture, and incorporation of radioactivity was quantified using a Betaplate scintillation counter.

[3] = system: EAE in PLP139-151-immunized SJL/J mice; assay: EAE, lipid or palmitic-acid treatment of established disease; format: in vivo, mouse
Description: Animal experiments were approved by, and performed in compliance with, the National Institute of Health guidelines of the Institutional Animal Care and Use Committee at Stanford University. For induction of EAE, 8- to 12-week-old female SJL/J mice (Jackson Laboratory) were immunized subcutaneously with 100 μg of PLP139-151 emulsified in CFA (Difco Laboratories). Lipid and palmitic-acid treatment: Administration of lipid, palmitic acid, or vehicle was initiated once the PLP139-151-immunized mice developed paralysis (representing clinical EAE) and repeated every other day, for a total of ten separate injections. 100 μg of POPS, PGPC, azPC ester, azPC, palmitic acid, or vehicle (0.05% Tween-20 in PBS) was administered in 0.2 ml intravenously in the tail. EAE treatment with lipid: 100 μg of PGPC or sphingomyelin or vehicle ([…] Tween-20 in PBS) was administered in 0.2 ml intravenously in the tail. Treatment with lipid or vehicle was initiated once the PLP139-151-immunized mice developed paralysis (representing clinical EAE) and repeated 3, 6, 12, and 18 days later, for a total of five separate injections.

CD3+ T cells [4] = assay: Proliferation of anti-CD3/anti-CD28-stimulated purified T cells; format: cell-based, mouse; details: anti-CD3 and anti-CD28, 0.25 mM palmitic acid, 48 h
Description: Splenocytes were harvested from mice transgenic for the MBPAc1-11-specific T-cell receptor and stimulated with 2 μg/ml of MBPAc1-11 in the presence of 30 μg/ml of lipid. Lymph nodes and spleens were also harvested from naive C57BL/6 mice, and CD3^+ T-cell enrichment columns (R&D systems) were used to isolate CD3^+ T cells. […] Cytokine assays were performed on culture supernatants after 24 (IL-12p40) or 48 hours (IFN-γ, IL-6, and TNF) of culture by using the BD OptEIA™ Mouse ELISA kits (BD Biosciences). Cd1d^−/− T cells: We harvested splenocytes from Cd1d^−/− mice and their wild-type littermates and used CD3^+ T-cell enrichment columns (R&D systems) to isolate T cells. […] Anti-CD3/anti-CD28-stimulated purified T cells: We harvested lymph nodes and spleens from naive C57BL/6 mice and used CD3^+ T-cell enrichment columns (R&D systems) to isolate CD3^+ T cells.

CD3+ T cells [5] = assay: Cytokine production of anti-CD3/anti-CD28-stimulated purified T cells; format: cell-based, mouse; details: anti-CD3 and anti-CD28, 0.25 mM palmitic acid, 48 h
Description: as §1
Anti-CD3/anti-CD28-stimulated purified T cells: We harvested lymph nodes and spleens from naive C57BL/6 mice and used CD3^+ T-cell enrichment columns (R&D systems) to isolate CD3^+ T cells. We then stimulated 1×10^6 cells/ml of T cells with 5 μg/ml of plate-bound anti-CD3 antibodies plus anti-CD28 antibodies in the presence of 30 μg/ml of POPS, PGPC, azPC ester, brain sulfatides, or azPC, […], or 100% ethanol (as the vehicle control).
Cytokine production by cells from the lymph nodes and spleens of PGPC co-immunized mice was measured after 66 hours of stimulation by using the BD OptEIA™ Mouse IFN-γ ELISA kit (BD Biosciences). Cytokine assays for the anti-CD3/anti-CD28 antibody-stimulated T cells and PLP139-151-stimulated splenocytes were performed on culture supernatants after 48 hours of stimulation using the BD OptEIA™ Mouse IL-6, IFN-γ, and TNF alpha ELISA kits (BD Biosciences) and the Mouse IL-17 DuoSet ELISA Development kit (R&D Systems).

[6] = system: CD3+ T cells (gated on CD4+ T cells); assay: T-cell apoptosis, Annexin V and 7AAD staining; format: cell-based, mouse; details: 0.25 mM palmitic acid, anti-CD3 and anti-CD28, 48 h
Description: FIG. 5. […] (C) TUNEL staining of brain and spinal-cord tissue from mice immunized with PLP139-151 peptide (to induce EAE) and treated for 12 h with azPC, POPS, or vehicle on day 15 after immunization. […] (D) Quantification of TUNEL-positive infiltrating cells in brain and spinal cord shown in panel (C). Cells were stained according to standard protocols, run on a FACScan flow cytometer (BD Biosciences), and analysed with CellQuest software (BD Immunocytometry Systems). The antibody conjugate used was FITC anti-CD4, clone GK1.5 (BD Pharmingen). 7AAD staining was performed by using the Annexin V-PE Apoptosis Detection Kit I (BD Pharmingen). Cells were stained according to standard protocols, run on a FACScan flow cytometer (BD Biosciences), and analysed with CellQuest software (BD Immunocytometry Systems) or with FlowJo software version 6.3.2 (Tree Star, Inc.).

[7] = system: EAE in PLP139-151-immunized SJL/J mice; assay: EAE, lipid administered prophylactically (co-immunization with PLP139-151); format: in vivo, mouse; details: 6 μg/injection; s.c. with PLP139-151 on day 0, i.p. on days 4 and 7
Description: Animal experiments were approved by, and performed in compliance with, the National Institute of Health guidelines of the Institutional Animal Care and Use Committee at Stanford University. For induction of EAE, 8- to 12-week-old female SJL/J mice (Jackson Laboratory) were immunized subcutaneously with 100 μg of PLP139-151 emulsified in CFA (Difco Laboratories). Three injections of PGPC (6 μg/mouse/injection) or vehicle (0.05% Tween-20 in PBS) were delivered on days 0, 4, and 7 after immunization with PLP139-151. On day 0, the lipid or vehicle was emulsified together with PLP139-151 in CFA and administered by subcutaneous injection. At subsequent time points, lipid or vehicle was injected intraperitoneally. EAE was assessed as previously described. To induce EAE in SJL/J mice (Jackson Mice), we immunized 8- to 12-week-old female animals subcutaneously with 100 μg of PLP139-151 emulsified in CFA (Difco Laboratories). Prophylactic administration of lipid: Three injections of PGPC or sphingomyelin (6 μg/mouse/injection) or vehicle (0.05% Tween-20 in PBS) were delivered on days 0, 4, and 7 after immunization with PLP139-151. […] Clinical disease was monitored daily using the following scoring system: 0, no disease; 1, limp tail; 2, hind limb weakness; 3, hind limb paralysis; 4, hind limb and forelimb paralysis; 5, death. […]

[8] = system: NF-κB and ERK pathways, Bcl-2 family proteins; assay: Immunoblot of inflammatory, survival and apoptotic signaling in anti-CD3/anti-CD28-stimulated T cells; format: cell-based, mouse; details: 30 μg/ml lipid, 15 min or 24 h
Description: CD3^+ T cells were isolated from the lymph nodes of naïve C57BL/6 mice by using CD3^+ T-cell enrichment columns (R&D systems). […] Cells were washed with ice-cold PBS and lysed in RIPA lysis buffer containing 1X Halt protease and phosphatase inhibitor cocktail (Pierce) with a Dounce homogenizer. Immunoblotting was performed with antibodies against phospho-Bim ([…]), phospho-Bad ([…]), phospho-Bcl-2 ([…]), phospho-IKKα/β (serines 180/181), phospho-p65 ([…]), phospho-ERK1/2 […]), and IκBα from Cell Signaling Technology.

[9] = system: EAE in PLP139-151-immunized SJL/J mice; details: prophylactic regimen, previously tested by the applicant, cited from earlier work

Question: For `CCCC[C@H](CCC(=O)O)NC(=O)CCCCCCc1ccccc1` [CAY10950], which “Effect on azPC (azPC-mediated inhibition of MBP-specific T cell proliferation)” value [1] is on record?
Answer: Inhibited

Question: Which “Effect on azPC (azPC-mediated inhibition of MBP-specific T cell proliferation)” value [1] does the source give for `O=C(CCCCc1ccccc1)C(F)(F)C(F)(F)F` [FKGK 11] here?
Answer: No effect

Question: For `CCc1c(CC(N)=O)c2cc(OCCCP(=O)(O)O)ccc2n1Cc1ccccc1` [LY 311727], which “Effect on azPC (azPC-mediated inhibition of MBP-specific T cell proliferation)” value [1] is on record?
Answer: Inhibited

Question: For `COc1ccc2c(c1)CC[C@@H]1[C@@H]2CC[C@]2(C)[C@@H](NCCCCCCN3C(=O)C=CC3=O)CC[C@@H]12` [U 73122], which “Effect on azPC (azPC-mediated inhibition of MBP-specific T cell proliferation)” value [1] is on record?
Answer: No effect

Question: For `CCCCCCCCCCCC(=O)c1c(O)c(C(=O)CCCCCCCCCCC)c(O)c(C2CC(c3ccc(O)cc3)Oc3cc(O)ccc32)c1O` (stereo not drawn) [YM 26734], which “Effect on azPC (azPC-mediated inhibition of MBP-specific T cell proliferation)” value [1] is on record?
Answer: Inhibited

Question: Which “concentration at which T-cell proliferation was suppressed” value (shortened to “concentration”) [2] does the source give for `CCCCCCCC(=O)OC` [methyl octanoate] here?
Answer: 10 mM

Question: With `CCCCCCCC(=O)O` [octanoic acid] as the compound, how does the “concentration” value [2] read?
Answer: 5 mM

Question: Which “EAE course after treatment was halted” value ([3]; 100 μg i.v. every other day, then stopped) does the source give for `CCCCCCCCCCCCCCCC(=O)O` [palmitic acid] here?
Answer: disease relapsed

Question: And the “EAE severity, established disease” value ([3]; 100 μg i.v. once paralysis developed, every other day, ten injections)?
Answer: attenuated EAE

Question: And the “concentration” value [2]?
Answer: 0.1 mM

Question: And the T-cell proliferation (CD3+ T cells [4])?
Answer: suppressed T-cell proliferation as effectively as the phospholipids

Question: And the “T-cell production of IFN-γ” value (CD3+ T cells [5])?
Answer: suppressed

Question: What about the “T-cell production of IL-6” value (CD3+ T cells [5]) of the same compound?
Answer: suppressed

Question: What about the “T-cell production of IL-17” value (CD3+ T cells [5]) of the same compound?
Answer: suppressed

Question: What about the “T-cell production of TNF” value (CD3+ T cells [5]) of the same compound?
Answer: suppressed

Question: And the T-cell apoptosis [6]?
Answer: induced T-cell apoptosis

Question: Which results are given for Sphingomyelin [reference compound]?
Answer: EAE severity (clinical score) [7]: attenuated EAE; EAE severity, established disease ([3]; 100 μg i.v. from disease onset (10 days after immunization), five injections): exacerbated EAE

Question: Which “CD3/CD28-induced activation of the NF-κB and ERK pathways” value [8] does the source give for sulfatide [reference compound] here?
Answer: neither inhibited

Question: And the EAE severity [9]?
Answer: exacerbated EAE

Question: And the EAE severity ([9]; listed as sulfatides)?
Answer: worsened EAE
